Measurements as given in patent publication US20140303109A1 (priority 2010, published 2014).

Tests used:
rabbit 20S proteasome = assay: Chymotrypsin-like activity of purified 20S proteasome (Suc-LLVY-AMC); format: biochemical
Description: Purified rabbit 20S proteasome and a fluorogenic substrate Suc-LLVY-AMC for the proteasomal chymotrypsin-like activity were obtained from Calbiochem Inc. (San Diego, Calif.).

[1] = oral 1 g/kg body wt., mouse; cited from earlier work
[2] = system: NF-κB DNA binding activity; assay: EMSA for NF-κB DNA binding activity, MIA PaCa-2; format: cell-based, human; settings: CUR 4 μM, CDF 2 μM
[3] = system: pancreatospheres of AsPC-1 cells; assay: Sphere formation assay; format: cell-based, human; settings: AsPC-1, varying concentrations
Method: A sphere formation assay was conducted for 1 week (FIG. 19A) and four weeks (FIG. 19B) to examine the effect of the treating agents on the CSC self-renewal capacity of the PC cell line AsPC-1. […] Therefore, it appears that CDF may cause pancreatospheres to be more sensitive to GEM, and as a result, CDF, or the combination of CDF/GEM, would be useful for targeted killing of CSCs.
Furthermore, pretreatment with CDF improved the outcome.

[4] = system: pancreatospheres of AsPC-1, AsPC1-GTR, MIAPaCa-2, and MIAPaCa-2-GTR cells; assay: Sphere disintegration assay; format: cell-based, human; settings: 5 days treatment of 10-day spheres
Description: After allowing 10 days to generate the formation of pancreatospheres, the cells were subjected to the treating agent for 5 days.

COX-2, PTEN expression = assay: Western blot of COX-2 and PTEN in tumor remnants; format: in vivo, mice; settings: MIAPaCa-2 tumors
Method: COX-2, PTEN, and β-actin expression was determined by Western blot.

BxPC-3 cells = assay: MTT cell viability, BxPC-3 (gemcitabine-sensitive); format: cell-based, human; settings: 0.1-4.0 μMol/L
Method: Cell growth was assessed by an MTT assay in a manner similar to that as described above. The color intensity was measured by a TECAN microplate fluorometer (Tecan Group, LTD, Research Triangle Park, N.C.) at 595 nm.

miR-21 = assay: Real-time RT-PCR of miR-21 in PC cell lines; format: cell-based, human; settings: 72 h; BxPC-3, MIAPaCa-E, MIAPaCa-M
Method: The expression of miRNAs (miRNA-200a, miR-200b, and miR-21) in all three pancreatic cancer cell lines, was measured with a TaqMan MicroRNA Assay kit (Applied Biosystems, Carlsbad, Calif.) following the manufacturer's protocol. […] Total RNA was extracted, and 5 ng of each sample were reverse-transcribed in a method described by Li, et al., Cancer Res., Vol. 69, pages 6704-6712 (2009). Real-time RT-PCR reactions were then carried out in a total volume of 25 μl reaction mixture, as described by Li, et al., id., using Smart Cycler II (Cepheid, Sunnyvale, Calif.). The data were analyzed using Ct method and were normalized by RNU6B expression in each sample.

[5] = system: AsPC-1, AsPC1-GTR, MIAPaCa-2, and MIAPaCa-2-GTR cell lines; assay: MTT cell survival and combination index, four PC lines; format: cell-based, human; settings: 72 h, 4 μMol/L
Description: Untreated control has been assigned a value of 100%. The p value shown represents comparisons between a single agent t and their combinations by using a paired t-test. A combination Index (CI)<1 for the CDF and GEM combination indicates synergism. The results are shown on FIGS. 17A to 17D.

CD44 and EpCAM = CD44 and EpCAM immunostaining of pancreatospheres; format: cell-based, human; settings: AsPC-1 and AsPC-1-GTR, 7 days
Method: Single cell suspensions of AsPC-1 and AsPC-1-GTR were plated into sphere formation media as previously described. After 7 days, the pancreatospheres were collected, washed, and fixed. The CSC biomarkers, CD44 and EpCAM, were used for immunostaining and the pancreatospheres were examined with confocal microscopy.

[6] = system: pancreatosphere-derived tumor cells; assay: Pancreatosphere formation by pancreatosphere-derived tumor cells; format: cell-based; settings: cells harvested from pancreatosphere-derived tumors
Description: Pancreatospheres (5,000) derived from MIAPaCa-2 cells were isolated and implanted in mice with 1:1 matrigel. […] RNA was extracted from the tumor tissue and assayed.
The animal was euthanized after 30 days because of tumor burden and photographed.

| SMILES | proteasome inhibition (rabbit 20S proteasome; 10 μM) [%] | inhibition of chymotrypsin-like activity of the proteasome (rabbit 20S proteasome; 1-10 μM, 2 h 37° C.) | Cmax [1] [ng/mL] | NF-κB DNA binding activity [2] | 2nd passage of pancreatospheres [3] | disintegration of pancreatospheres [4] | expression of PTEN in tumor remnants (COX-2, PTEN expression) | cell viability (BxPC-3 cells) | expression of miR-21 (miR-21) | cell survival [5] | expression of CD44 and EpCAM in pancreatospheres (CD44 and EpCAM) | formation of new pancreatospheres [6] |
| --- | --- | --- | --- | --- | --- | --- | --- | --- | --- | --- | --- | --- |
| COc1cc(/C=C/C(=O)CC(=O)/C=C/c2ccc(O)c(OC)c2)ccc1O [CUR, (1E,6E)-1,7-bis(4-hydroxy-3-methoxyphenyl)hepta-1,6-diene-3,5-dione, reference compound] | 70 | 20-70% | 220 | down-regulation of NF-κB | – | – | – | – | – | – | – | – |
| COc1cc(/C=C/C(=O)C(=Cc2ccc(F)c(F)c2)C(=O)/C=C/c2ccc(O)c(OC)c2)ccc1O [CDF, (1E,6E)-1,7-bis(4-hydroxy-3-methoxyphenyl)hepta-1,6-diene{4(3,4 difluorobenzaldehyde)}-3,5-dione] | – | – | – | – | inhibited 2nd passage of pancreatospheres in a dose-dependent manner | remarkably increased disintegration of pancreatospheres | up-regulated | significant reduction in cell viability | significant reduction in the expression of miR-21 | much more significant reduction of cell survival in PC cells than GEM, CUR, or their combination | decreased the expression of CD44 and EpCAM in pancreatospheres | significant inhibition in the formation of new pancreatospheres |
